Laboratory results reported in ChEMBL document CHEMBL5724914, “Linking interpersonal differences in gut microbiota composition and drug biotransformation activity” (2024).

Legend:
[1] = (§1) The drug is tested on WLS-010 corresponding to human gut metagenome with ENA study accession number: PRJEB37062 and ENA sample accession number: ERS12561743 for biotransformation under anaerobic condition. The drug concentrations were measured over 9 timepoints collected between 0 and 24 hours of incubation by liquid-chromatography-coupled mass spectrometry (LC–MS); conditions: 2 µM
[2] = as §1, with “WLS-086” for “WLS-010”, “ERS12561752” for “ERS12561743”; conditions: 2 µM
[3] = as §1, with “Z-028” for “WLS-010”, “mouse” for “human”, “ERS12561827” for “ERS12561743”; conditions: 2 µM
[4] = human gut metagenome, 24 h, 2 µM
[5] = as §1, with “WLS-370” for “WLS-010”, “ERS12561793” for “ERS12561743”; conditions: 2 µM
[6] = human gut metagenome, 24 h, 2 µM; remark: listed apart in the source
[7] = human gut metagenome, 24 h, 2 µM; remark: listed apart in the source
[8] = human gut metagenome, 24 h, 2 µM; remark: listed apart in the source
[9] = as §1, with “Z-006” for “WLS-010”, “mouse” for “human”, “ERS12561806” for “ERS12561743”; conditions: 2 µM
[10] = as §1, with “Z-005” for “WLS-010”, “to” for “to human gut”, “ERS12561805” for “ERS12561743”; conditions: 2 µM
[11] = as §1, with “Z-010” for “WLS-010”, “to” for “to human gut”, “ERS12561810” for “ERS12561743”; conditions: 2 µM
[12] = human gut metagenome, 24 h, 2 µM; remark: listed apart in the source
[13] = as §1, with “Z-021” for “WLS-010”, “to” for “to human gut”, “ERS12561820” for “ERS12561743”; conditions: 2 µM
[14] = as §1, with “Z-023” for “WLS-010”, “to” for “to human gut”, “ERS12561822” for “ERS12561743”; conditions: 2 µM
[15] = as §1, with “Z-013” for “WLS-010”, “rabbit” for “human”, “ERS12561813” for “ERS12561743”; conditions: 2 µM
[16] = as §1, with “WLS-098” for “WLS-010”, “ERS12561754” for “ERS12561743”; conditions: 2 µM
[17] = as §1, with “WLS-170” for “WLS-010”, “ERS12561762” for “ERS12561743”; conditions: 2 µM
[18] = human gut metagenome, 24 h, 2 µM; remark: listed apart in the source
[19] = as §1, with “WLS-082” for “WLS-010”, “ERS12561751” for “ERS12561743”; conditions: 2 µM
[20] = as §1, with “Z-018” for “WLS-010”, “pig” for “human”, “ERS12561817” for “ERS12561743”; conditions: 2 µM
Also: call rule not given here.

Row | Bacterial Biotransformation [1] | Bacterial Biotransformation [2] | Bacterial Biotransformation [3] | Bacterial Biotransformation [4] | Bacterial Biotransformation [5] | Bacterial Biotransformation [6] | Bacterial Biotransformation [7] | Bacterial Biotransformation [8] | Bacterial Biotransformation [9] | Bacterial Biotransformation [10] | Bacterial Biotransformation [11] | Bacterial Biotransformation [12] | Bacterial Biotransformation [13] | Bacterial Biotransformation [14] | Bacterial Biotransformation [15] | Bacterial Biotransformation [16] | Bacterial Biotransformation [17] | Bacterial Biotransformation [18] | Bacterial Biotransformation [19] | SMILES | Bacterial Biotransformation [20]
1 | Compound metabolized | Compound metabolized | Compound NOT metabolized | Compound NOT metabolized | Compound NOT metabolized | Compound NOT metabolized | Compound metabolized | Compound NOT metabolized | Compound metabolized | Compound metabolized | Compound metabolized | Compound NOT metabolized | Compound metabolized | Compound NOT metabolized | Compound metabolized | Compound metabolized | Compound metabolized | Compound NOT metabolized |  | CSc1ccc2c(c1)C(N1CCN(C)CC1)Cc1ccccc1S2.O=C(O)/C=C\C(=O)O (centres undefined) | 
2 | Compound NOT metabolized | Compound NOT metabolized | Compound NOT metabolized | Compound NOT metabolized | Compound NOT metabolized | Compound NOT metabolized | Compound NOT metabolized | Compound NOT metabolized | Compound NOT metabolized | Compound NOT metabolized |  | Compound NOT metabolized | Compound metabolized | Compound metabolized |  | Compound NOT metabolized | Compound NOT metabolized | Compound NOT metabolized | Compound NOT metabolized | CCOC(=O)[C@H](CCc1ccccc1)N[C@@H](C)C(=O)N1CCC[C@H]1C(=O)O.O=C(O)/C=C\C(=O)O [ENALAPRIL MALEATE] | 
3 | Compound metabolized | Compound metabolized | Compound metabolized | Compound metabolized | Compound metabolized | Compound metabolized | Compound metabolized | Compound metabolized | Compound NOT metabolized |  |  | Compound NOT metabolized | Compound NOT metabolized | Compound metabolized | Compound NOT metabolized | Compound metabolized | Compound metabolized | Compound metabolized | Compound metabolized | O=C1C(CC[S+]([O-])c2ccccc2)C(=O)N(c2ccccc2)N1c1ccccc1 (centres undefined) [SULFINPYRAZONE] | Compound metabolized

Second part, the molecule before the results:

Row | SMILES | Bacterial Biotransformation [1] | Bacterial Biotransformation [2] | Bacterial Biotransformation [3] | Bacterial Biotransformation [4] | Bacterial Biotransformation [5] | Bacterial Biotransformation [6] | Bacterial Biotransformation [7] | Bacterial Biotransformation [8] | Bacterial Biotransformation [9] | Bacterial Biotransformation [10] | Bacterial Biotransformation [11] | Bacterial Biotransformation [12] | Bacterial Biotransformation [13] | Bacterial Biotransformation [14] | Bacterial Biotransformation [15] | Bacterial Biotransformation [16] | Bacterial Biotransformation [17] | Bacterial Biotransformation [18] | Bacterial Biotransformation [19] | Bacterial Biotransformation [20]
4 | CC(C)C[C@H]1C(=O)N2CCC[C@H]2[C@]2(O)O[C@](NC(=O)[C@@H]3C=C4c5cccc6[nH]c(Br)c(c56)C[C@H]4N(C)C3)(C(C)C)C(=O)N12.CS(=O)(=O)O [BROMOCRIPTINE MESYLATE] | Compound metabolized |  | Compound metabolized | Compound metabolized | Compound metabolized |  | Compound metabolized |  | Compound metabolized | Compound metabolized | Compound metabolized |  | Compound metabolized | Compound metabolized | Compound metabolized | Compound metabolized | Compound metabolized | Compound NOT metabolized | Compound metabolized | Compound metabolized
5 | CCc1cccc2c3c([nH]c12)C(CC)(CC(=O)O)OCC3 (centres undefined) [ETODOLAC] | Compound metabolized | Compound metabolized | Compound NOT metabolized | Compound metabolized | Compound metabolized | Compound NOT metabolized | Compound metabolized | Compound metabolized | Compound NOT metabolized | Compound NOT metabolized | Compound NOT metabolized | Compound NOT metabolized | Compound NOT metabolized | Compound NOT metabolized | Compound NOT metabolized | Compound metabolized | Compound metabolized | Compound metabolized |  | Compound metabolized
6 | CC(=O)OCC(CCn1cnc2cnc(N)nc21)COC(C)=O [FAMCICLOVIR] | Compound metabolized | Compound metabolized | Compound metabolized | Compound metabolized | Compound metabolized | Compound metabolized | Compound metabolized | Compound metabolized | Compound metabolized | Compound metabolized | Compound metabolized | Compound NOT metabolized | Compound NOT metabolized | Compound metabolized | Compound NOT metabolized | Compound metabolized | Compound metabolized | Compound metabolized | Compound metabolized | 
7 | CN1[C@@H]2CC[C@H]1C[C@@H](OC(=O)[C@H](CO)c1ccccc1)C2 [HYOSCYAMINE] |  | Compound metabolized | Compound NOT metabolized | Compound metabolized |  |  | Compound metabolized | Compound NOT metabolized |  |  |  | Compound NOT metabolized | Compound NOT metabolized | Compound NOT metabolized | Compound NOT metabolized | Compound metabolized | Compound metabolized |  |  | Compound NOT metabolized
8 | C#C[C@]1(OC(C)=O)CC[C@H]2[C@@H]3CCC4=CC(=O)CC[C@@H]4[C@H]3CC[C@@]21C [NORETHINDRONE ACETATE] | Compound metabolized | Compound NOT metabolized | Compound metabolized | Compound metabolized | Compound metabolized | Compound metabolized | Compound NOT metabolized |  | Compound metabolized | Compound metabolized | Compound metabolized | Compound NOT metabolized | Compound metabolized | Compound metabolized | Compound metabolized | Compound metabolized | Compound metabolized | Compound metabolized |  | Compound metabolized
9 | COc1ccc(Cc2nccc3cc(OC)c(OC)cc23)cc1OC [PAPAVERINE] | Compound metabolized | Compound metabolized | Compound NOT metabolized | Compound metabolized | Compound metabolized | Compound metabolized | Compound metabolized | Compound metabolized | Compound NOT metabolized | Compound metabolized |  | Compound NOT metabolized | Compound metabolized | Compound metabolized | Compound NOT metabolized |  | Compound metabolized | Compound metabolized |  | Compound metabolized
